Patent US9115147B2, “Tricyclic derivatives and their pharmaceutical use and compositions” (Cephalon, Inc., priority 2009, dated 2015)

target: T1, human 5-HT6 receptor (Homo sapiens, UniProt P50406); assay: Human 5-HT6 Receptor Binding Assay ([3H]LSD, scintillation beads); settings: Human 5-HT6 Ki app (nM), membranes of CHO-K1 cells with recombinant human 5-HT6 receptor, 4 nM [3H]LSD, Cheng-Prusoff
T1 construct: host or cells: CHO-K1 cells, stably transfected; membranes prepared in house
Procedure: Human 5-HT6 Receptor Binding Assay
Membranes were prepared from CHO-K1 cells stably transfected with the human 5-HT6 receptor (Euroscreen; ES-316-C). The cells were grown in Gibco Advanced DMEM-F12 (Cat#12634010) containing 2% dialyzed FBS (Hyclone Cat#SH30079.03). The cells were harvested in phosphate buffered saline (PBS) containing 0.1 mM EDTA and pelleted by centrifugation (1000×g), the supernatant was discarded and the pellets were stored at −80° C. prior to membrane preparation. Membranes were prepared as previously described (J Bio Chem. 1992, 267 (14) 9844-51). Briefly, frozen cell pellet was resuspended in a lysis buffer containing 5 mM Tris-HCl (pH 7.5), 5 mM EDTA and 1 complete EDTA-free protease inhibitor tablet (Roche Applied Science, Indianapolis, Ind.) per 50 mL buffer, and homogenized with a tissue homogenizer. The cell lysate was then centrifuged at 40,000×g for 30 min at 4° C. to collect the membranes. The membrane pellets were washed in membrane buffer (50 mM Tris-HCl (pH 7.5), 0.6 mM EDTA, 5 mM MgCl2, 1 complete EDTA-free protease inhibitor tablet per 50 mL buffer) using a tissue homogenizer. The membranes were centrifuged at 40,000×g for 30 min at 4° C. and the pellets were resuspended in membrane buffer containing 250 mM sucrose, and protein concentration was determined using the Coomassie Plus kit (Pierce Biotechnology, Rockford, Ill.).
Membranes prepared from cells expressing recombinant human 5-HT6 receptor (h5-HT6) were resuspended in assay buffer containing 50 mM Tris HCl, (pH7.4), 4 mM CaCl2, 10 μg/mL saponin, and 0.1% (w/v) ascorbic acid. Membranes were preincubated using 1.75 μg membrane protein and 0.25 mg FlashBlue scintillation beads (PerkinElmer catalogue #FB001) per well at 4° C. for 30 min. […] Test compounds or assay controls for total and non-specific binding were diluted in DMSO as 100× solutions and serially diluted by half log concentrations on a Perkin Elmer JANUS Automated Workstation. Serotonin (10 μM final concentration) was used to determine non-specific binding in the assay. Plates were read using the Microbeta Trilux 1450 LSC and luminescence counter. Data were analyzed by nonlinear […] using the dose-response equation (variable slope) to calculate IC50 in XLfit4 (ID Business Solutions Inc.): y=(Bottom+((Top−Bottom)/(1+((IC50/x)^Hill slope))))
Ki value was then calculated according to the Cheng-Prusoff method using the equation below (Cheng and Prusoff, 1973): Ki, app=IC50/(1+([radioligand]/Kd))

T1 sequence (P50406 whole entry): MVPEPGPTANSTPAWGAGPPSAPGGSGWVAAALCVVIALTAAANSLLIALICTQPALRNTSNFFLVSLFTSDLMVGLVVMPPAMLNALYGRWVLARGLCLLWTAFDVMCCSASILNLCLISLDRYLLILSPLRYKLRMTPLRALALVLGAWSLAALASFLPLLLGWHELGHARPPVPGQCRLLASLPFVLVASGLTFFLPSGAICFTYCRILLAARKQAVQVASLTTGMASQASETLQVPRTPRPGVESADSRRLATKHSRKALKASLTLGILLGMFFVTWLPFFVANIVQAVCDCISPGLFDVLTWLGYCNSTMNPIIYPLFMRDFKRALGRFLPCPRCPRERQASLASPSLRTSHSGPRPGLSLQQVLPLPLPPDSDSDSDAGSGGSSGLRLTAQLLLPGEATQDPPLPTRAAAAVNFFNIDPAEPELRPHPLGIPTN

Structure (SMILES) | Ki [nM]
O=S(=O)(c1cncc(Cl)c1)c1ccc2c(c1)OCC1NCCC21 (single isomer, unassigned) [Example 30, 7-[(5-chloropyridin-3-yl)sulfonyl]-1,2,3,3a,4,9b-hexahydrochromeno[3,4-b]pyrrole] | < 500
COc1cncc(S(=O)(=O)c2ccc3c(c2)OCC2NCCC32)c1 (single isomer, unassigned) [Example 35, 7-[(5-methoxypyridin-3-yl)sulfonyl]-1,2,3,3a,4,9b-hexahydrochromeno[3,4-b]pyrrole] | > 1000
O=S(=O)(c1cncc(Cl)c1)c1ccc2c(c1)OCC1NCCC21 (racemic) [Example 111, 7-[(5-chloropyridin-3-yl)sulfonyl]-1,2,3,3a,4,9b-hexahydrochromeno[3,4-b]pyrrole] | < 500

same assay, conditions: actual data; membranes of CHO-K1 cells with recombinant human 5-HT6 receptor, 4 nM [3H]LSD; read-out: Human 5-HT6 Ki

Ki [nM] | Structure (SMILES)
2.5 | O=S(=O)(c1ccccc1)c1ccc2c(c1)OCC1NCCC21 (racemic) [Example 104, 7-(phenylsulfonyl)-1,2,3,3a,4,9b-hexahydrochromeno[3,4-b]pyrrole]

same assay, conditions: membranes of CHO-K1 cells with recombinant human 5-HT6 receptor, 4 nM [3H]LSD, Cheng-Prusoff; read-out: Human 5-HT6 Ki app

Ki [nM] | Structure (SMILES)
> 1000 | O=S(=O)(c1ccccc1)c1ccc2c(c1)OCC1C2CCN1CC1CC1 (single isomer, unassigned) [Example 72, 3-(cyclopropylmethyl)-7-(phenylsulfonyl)-1,2,3,3a,4,9b-hexahydrochromeno[3,4-b]pyrrole]
< 500 | COc1cc(F)cc(S(=O)(=O)c2ccc3c(c2)OCC2NCCC32)c1 (single isomer, unassigned) [Example 44, 7-[(3-fluoro-5-methoxyphenyl)sulfonyl]-1,2,3,3a,4,9b-hexahydrochromeno[3,4-b]pyrrole]
> 1000 | O=S(=O)(c1cncc(F)c1)c1ccc2c(c1)OCC1C2CCN1C1CCC1 (single isomer, unassigned) [Example 75, 3-cyclobutyl-7-[(5-fluoropyridin-3-yl)sulfonyl]-1,2,3,3a,4,9b-hexahydrochromeno[3,4-b]pyrrole]
< 500 | O=S(=O)(c1ccccc1)c1ccc2c(c1)C1CCNC1CO2 (single isomer, unassigned) [Example 54, 8-(phenylsulfonyl)-1,2,3,3a,4,9b-hexahydrochromeno[3,4-b]pyrrole]
< 500 | O=S(=O)(c1cccc(F)c1)c1ccc2c(c1)OCC1NCCC21 (single isomer, unassigned) [Example 1, 7-[(3-fluorophenyl)sulfonyl]-1,2,3,3a,4,9b-hexahydrochromeno[3,4-b]pyrrole]
< 500 | O=S(=O)(c1ccccc1)c1ccc2c(c1)OCC1C2CCN1C1CCCCC1 (single isomer, unassigned) [Example 63, 3-cyclohexyl-7-(phenylsulfonyl)-1,2,3,3a,4,9b-hexahydrochromeno[3,4-b]pyrrole]
< 500 | O=S(=O)(c1cccc(C(F)(F)F)c1)c1ccc2c(c1)OCC1NCCC21 (single isomer, unassigned) [Example 8, 7-{[3-(trifluoromethyl)phenyl]sulfonyl}-1,2,3,3a,4,9b-hexahydrochromeno[3,4-b]pyrrole]
< 500 | O=S(=O)(c1cc(F)cc(Cl)c1)c1ccc2c(c1)OCC1NCCC21 (single isomer, unassigned) [Example 15, 7-[(3-chloro-5-fluorophenyl)sulfonyl]-1,2,3,3a,4,9b-hexahydrochromeno[3,4-b]pyrrole]
> 1000 | O=S(=O)(c1cncc(Cl)c1)c1ccc2c(c1)OCC1C2CCN1C1CCC1 (single isomer, unassigned) [Example 81, 7-[(5-chloropyridin-3-yl)sulfonyl]-3-cyclobutyl-1,2,3,3a,4,9b-hexahydrochromeno[3,4-b]pyrrole]
< 500 | CN(C)C(=O)c1cccc(S(=O)(=O)c2ccc3c(c2)OC[C@@H]2NCC[C@H]32)c1 (single isomer, unassigned) [Example 46]
> 1000 | O=S(=O)(c1ccccc1)c1ccc2c(c1)OCC1C2CCN1CCc1ccccc1 (single isomer, unassigned) [Example 103, 3-(2-phenylethyl)-7-(phenylsulfonyl)-1,2,3,3a,4,9b-hexahydrochromeno[3,4-b]pyrrole]
< 500 | O=S(=O)(c1ccc(F)cc1)c1ccc2c(c1)OCC1NCCC21 (single isomer, unassigned) [Example 4, 7-[(4-fluorophenyl)sulfonyl]-1,2,3,3a,4,9b-hexahydrochromeno[3,4-b]pyrrole]
< 500 | O=S(=O)(c1cccc(Cl)c1)c1ccc2c(c1)OCC1NCCC21 (single isomer, unassigned) [Example 11, 7-[(3-chlorophenyl)sulfonyl]-1,2,3,3a,4,9b-hexahydrochromeno[3,4-b]pyrrole]
< 500 | O=S(=O)(c1cccc(Cl)c1)c1ccc2c(c1)OCC1NCCC21 (single isomer, unassigned) [Example 2, 7-[(3-chlorophenyl)sulfonyl]-1,2,3,3a,4,9b-hexahydrochromeno[3,4-b]pyrrole]
< 500 | O=S(=O)(c1ccc2c(c1)OCC1NCCC21)c1cc(F)cc(F)c1F (single isomer, unassigned) [Example 42, 7-[(2,3,5-trifluorophenyl)sulfonyl]-1,2,3,3a,4,9b-hexahydrochromeno[3,4-b]pyrrole]
< 500 | CC(C)Oc1cc(F)cc(S(=O)(=O)c2ccc3c(c2)OCC2NCCC32)c1 (single isomer, unassigned) [Example 43, 7-{[3-fluoro-5-(propan-2-yloxy)phenyl]sulfonyl}-1,2,3,3a,4,9b-hexahydrochromeno[3,4-b]pyrrole]
500 to 1000 | O=S(=O)(c1cncc(Br)c1)c1ccc2c(c1)OCC1C2CCN1C1CCC1 (single isomer, unassigned) [Example 73, 7-[(5-bromopyridin-3-yl)sulfonyl]-3-cyclobutyl-1,2,3,3a,4,9b-hexahydrochromeno[3,4-b]pyrrole]
< 500 | CC(C)Oc1cccc(S(=O)(=O)c2ccc3c(c2)OCC2NCCC32)c1 (single isomer, unassigned) [Example 18, 7-{[3-(propan-2-yloxy)phenyl]sulfonyl}-1,2,3,3a,4,9b-hexahydrochromeno[3,4-b]pyrrole]
< 500 | O=S(=O)(c1cncc(C(F)(F)F)c1)c1ccc2c(c1)OCC1NCCC21 (single isomer, unassigned) [Example 51, 7-{[5-(trifluoromethyl)pyridin-3-yl]sulfonyl}-1,2,3,3a,4,9b-hexahydrochromeno[3,4-b]pyrrole]
< 500 | COc1cc(F)cc(S(=O)(=O)c2ccc3c(c2)OCC2NCCC32)c1 (single isomer, unassigned) [Example 36, 7-[(3-fluoro-5-methoxyphenyl)sulfonyl]-1,2,3,3a,4,9b-hexahydrochromeno[3,4-b]pyrrole]
> 1000 | O=S(=O)(c1ccccc1)c1ccc2c(c1)OCC1C2CCN1Cc1ccccc1 (single isomer, unassigned) [Example 102, 3-benzyl-7-(phenylsulfonyl)-1,2,3,3a,4,9b-hexahydrochromeno[3,4-b]pyrrole]
< 500 | O=S(=O)(c1ccccc1)c1ccc2c(c1)OCC1NCCC21 (racemic) [Example 104, 7-(phenylsulfonyl)-1,2,3,3a,4,9b-hexahydrochromeno[3,4-b]pyrrole]
> 1000 | CC(C)CCCN1CCC2c3ccc(S(=O)(=O)c4ccccc4)cc3OCC21 (single isomer, unassigned) [Example 101, 3-(4-methylpentyl)-7-(phenylsulfonyl)-1,2,3,3a,4,9b-hexahydrochromeno[3,4-b]pyrrole]
< 500 | CC(C)Oc1cc(F)cc(S(=O)(=O)c2ccc3c(c2)OCC2NCCC32)c1 (single isomer, unassigned) [Example 27, 7-{[3-fluoro-5-(propan-2-yloxy)phenyl]sulfonyl}-1,2,3,3a,4,9b-hexahydrochromeno[3,4-b]pyrrole]
< 500 | O=S(=O)(c1ccccc1)c1ccc2c(c1)C1CCN(C3CCC3)C1CO2 (single isomer, unassigned) [Example 88, 3-cyclobutyl-8-(phenylsulfonyl)-1,2,3,3a,4,9b-hexahydrochromeno[3,4-b]pyrrole]
< 500 | O=S(=O)(c1cccc(F)c1)c1ccc2c(c1)OCC1NCCC21 (single isomer, unassigned) [Example 10, 7-[(3-fluorophenyl)sulfonyl]-1,2,3,3a,4,9b-hexahydrochromeno[3,4-b]pyrrole]

Structure (SMILES) | Ki [nM]
Cc1cccc(Sc2ccc3c(c2)OCC2NCCC32)n1 (single isomer, unassigned) [Example 21, 7-[(6-methylpyridin-2-yl)sulfanyl]-1,2,3,3a,4,9b-hexahydrochromeno[3,4-b]pyrrole] | > 1000
